Measurements taken from US20110028566A1, “COMPOSITIONS AND PRODUCTS CONTAINING CYCLOALIPHATIC DIOL ANTIMICROBIAL AGENTS AND METHODS OF USING THE COMPOSITIONS AND PRODUCTS” (EASTMAN CHEMICAL COMPANY, priority 2009, published 2011).

Experiments:
Aspergillus niger = assay: Test for adequate preservation in skin cream formulation (microorganism counts); assay type: cell-based; details: skin cream emulsion pH 6.75; concentration in label
Experimental: (§1) A test for adequate preservation was carried out in accordance with the European Pharmacopea (6.0) and United States Pharmacopea (5.1). The testing consisted of the inoculation of a skin cream formulation serving as an emulsion substrate. The skin cream formulation having a pH of 6.75 was as follows: […]
(§2) This skin cream was the emulsion substrate, which formed the base for all further experimentation.
(§3) For Examples 3.1 through 3.10, 390.0 g cream were weighed into a 600-ml beaker. The cream was stirred at room temperature while adding the ingredients specified in Table 51. Each sample was stirred for 2 hours, then placed in the refrigerator until inoculated.
(§4) For Examples 3.11 and 3.12, 179.4 g cream were weighed into a 400-ml beaker. The cream was stirred at room temperature while adding the specified ingredients.
(§5) The samples of Examples 3.1 through 3.10 were challenged with specific organisms (see Table 51) to produce a contamination of between 1.0×10^5 cfu/g and 1.0×10^6 cfu/g. The actual inoculation counts resulting from these challenges were immediately determined by diluting in sterile buffered water and (spread plate method) plating for enumeration.
(§6) Challenge organisms were prepared in Mueller-Hinton broth, allowed to grow for 72 hours at 35° C.+/−2° C., centrifuged at 2500 rpm for 5 minutes, and the supernatant broth was removed. The microbial pellet was then re-diluted with sterile buffered water to a turbidity that matched previous 1.0×10^8 cfu/g concentrations of that organism's specific growth curve.
(§7) The test emulsions were maintained within a specific temperature range optimal for the organisms; 35° C.+/2° C. for the bacteria and 22° C.+/−2° C. for the fungi, for the first three days. They were kept at ambient room temperature for the subsequent time periods.
(§8) Subculture samples of approximately 1 gram were taken for counts at 7, 14, and 30 days and incubated under optimal conditions and nutrition for no less than 5 days. Subcultures were diluted 1:2, 1:10, 1:100, . . . , 1:10,000 and plated using the spread plate method onto Plate Count Agar and onto SAB Dextrose Agar for the Candida and Aspergillus species; and incubated as follows: 35° C.+/−2° C. for the Plate Count Agar and 22° C.+/−2° C. for the SAB Dextrose plates of Candida albicans and Aspergillus niger. Negative results were not reported before 7 days incubation, and counts were performed after no less than 5 days incubation. Because of the high viscosity of the test emulsion, at least a 1:2 dilution was required to perform the spread plate subcultures. 0-30 counts represent a 1 to 2 dilution, numbers […] a 1:10 dilution; and the rest represent dilutions of 1:100, 1:1000, or 1:10,000. […]

Pseudomonas aeruginosa = assay: as above; assay type: cell-based; details: skin cream emulsion pH 6.75; concentration in label
Experimental: as §1, §2, §3, §4, §5, §6, §7, §8

OCC1CCC(CO)CC1 (centres unmarked) [1,4-CHDM, 1,4-cyclohexanedimethanol]
Antimicrobial activity against Aspergillus niger in skin cream (in words) (Aspergillus niger): significant activity
Antimicrobial activity against Pseudomonas aeruginosa in skin cream (in words) (Pseudomonas aeruginosa): significant activity
